# Reference: article PMC6214014, “Dendrimeric Poly(Epsilon-Lysine) Delivery Systems for the Enhanced Permeability of Flurbiprofen across the Blood-Brain Barrier in Alzheimer’s Disease” (International Journal of Molecular Sciences, 2018)
# “And” between values parts separate entries of the source, which are not always exact repeats. Equal values may be shown once.
# Columns and labels:
# [1] = tested on: in vitro BBB model (bEnd.3 cells); experiment: Penetration across the in vitro BBB model (bEnd.3 monolayer on Transwell inserts, HPLC); format: in vitro ADME, mouse; conditions: bEnd.3 Transwell, n = 6
# Description: The lyophilised powders of synthesised molecules (G0K-FP and G1K-FP) as well as free drug (FP) were dissolved in the FBS-free; phenol-free culture media in a concentration of 200 µM. Quantitative analysis of drug and drug-attached dendrons penetration was conducted using HPLC (Agilent technology/1260 infinity, Stockport, UK). The analysis was carried out using a hydrophobic C18 column (150 × 4.6 mm) and a UV-detection wavelength 248 nm which is the λmax of FP [5]. The gradient of eluent of the mobile phase was run from 75:25 to 25:75 of water: acetonitrile over 20 min. The standard curve for each molecule was obtained to calculate the percentage of transported amount across the in vitro BBB model.
# To establish an in vitro BBB model, bEnd.3 cells were cultured on microporous membrane (0.4 µm pore size) of 12-Transwell inserts (Fisher Scientific) with complete culture media. TEER values between apical and basolaterl chambers was measured using an Evom voltometer (Sarasota, FL, USA) to determine the day of maximum values indicating tight junction formation. The measurements were taken up to day 8 of culturing and compared to the results of HUVECs which were also cultured into Transwell-clear inserts. Cell-free Transwell inserts were included to exclude the resistance related to the inserts membrane alone. The apical chambers of bEnd.3 culture were then treated with 200 µM of each samples. After 1 and 4 h incubation, 200 µL samples were taken from the basolateral chambers and percentage of permeability calculated according to the following:PMaterial % = ((CAcceptor × VAcceptor)/(CDonor × VDonor)) × 100%(1) where PMaterial %: the percentage of permeability of the tested material, CAcceptor: the concentration of the tested material in basal chamber, VAcceptor: the volume of the culture media in the basal chamber, CDonor: the initial concentration of the tested material in the apical chamber, VDonor: the volume of the culture media in the apical chamber.
# [2] = design: method as in PMID 7736686; conditions: cited from earlier work
# [3] = tested on: γ-secretase enzyme; experiment: Quantification of γ-secretase enzyme in C6 glial cells (sandwich ELISA); format: cell-based; conditions: 200 µM, 4 h incubation, untreated control 28.43 ± 8.32 pg/mL, n = 6
# Description: The C6 glial cells seeded in a density of 5 × 10^4 cells per cm^2 and incubated at 37 °C and 5% CO2. The investigation is based on sandwich enzyme-linked immune-sorbent assay (ELISA) technology using γ-secretase enzyme kit (Abbexa Ltd., Cambridge, UK). C6 glial cells were cultured in 24-well plates at density 5 × 10^4 cells per cm^2, and at confluence, they were treated with 200 μM FP, […]-FP, or […]-FP dissolved in […] media. Wells containing untreated C6 cells were also included as a control. After 4 h incubation, cells were washed with PBS and lysed via freezing to -20 °C and thawing to room temperature 3 times. […] The collected samples were used immediately to avoid any degradation and denaturalisation. The standard curve of γ-secretase standards (supplied with kit) was constructed and the concentration of γ-secretase was calculated for each sample.
# [4] = tested on: bEnd.3 cells monolayer; design: method as in PMID 24280275; conditions: cited from earlier work
# [5] = design: method as in PMID 7736686; conditions: cited from earlier work; remark: listed apart in the source
# [6] = tested on: γ-secretase; design: method as in PMID 20009055, PMID 18450517; conditions: at the target tissue site; cited from earlier work
# [7] = tested on: brain endothelial cells and Caco-2 cell monolayers; design: method as in PMID 23089576; conditions: cited from earlier work
# [8] = 1 h after applying 200 µM to apical chamber
# [9] = 4 h after applying 200 µM to apical chamber
compound,measurement,setting,value
"CC(C(=O)NCCCC[C@H](NC(=O)C(C)c1ccc(-c2ccccc2)c(F)c1)C(=O)N[C@@H](Cc1ccccc1)C(=O)O)c1ccc(-c2ccccc2)c(F)c1 (stereo partly drawn) [G0K-FP, Generation 0 lysine dendron-2Flurbiprofen]",% Of Permeability (Mean ± SD),[1]; [8],5.3% and 5.31 ± 2.73%
same,% Of Permeability (Mean ± SD),[1]; [9],12.5% and 12.48 ± 3.42%
"CC(C(=O)O)c1ccc(-c2ccccc2)c(F)c1 (stereo not drawn) [FP, Flurbiprofen]",biological half-life,[2],4 h
same,time to full excretion from the body,[2],≤ 24 h
same,γ-Secretase Enzyme Concentration (Mean ± SD),[3],8.2 pg/mL and 8.20 ± 3.80 pg/mL
same,% Of Permeability (Mean ± SD),[1]; [8],2.71 ± 1.52%
same,% Of Permeability (Mean ± SD),[1]; [9],8.50 ± 1.32%
same,% Of Permeability (Mean ± SD),"[1]; 4 h after applying 200 µM to apical chamber, listed as Free FP",less than 9%
same,% Of Permeability (Mean ± SD),"[1]; 4 h after applying 200 µM to apical chamber, listed as free drug",not more than 8.5%
same,diffusion through bEnd.3 cells monolayer,[4],approximately 10%
same,water solubility,[5],poorly water-soluble
same,required therapeutic concentration for pharmacologically-significant effect on γ-secretase activity,[6],150–250 µM
"CC(C(=O)NCCCC[C@H](NC(=O)C(C)c1ccc(-c2ccccc2)c(F)c1)C(=O)NCCCC[C@H](NC(=O)[C@H](CCCCNC(=O)C(C)c1ccc(-c2ccccc2)c(F)c1)NC(=O)C(C)c1ccc(-c2ccccc2)c(F)c1)C(=O)N[C@@H](Cc1ccccc1)C(=O)O)c1ccc(-c2ccccc2)c(F)c1 (stereo partly drawn) [G1K-FP, Generation 1 lysine dendron-4Flurbiprofen]",% Of Permeability (Mean ± SD),[1]; [8],4.3% and 4.32 ± 1.05%
same,% Of Permeability (Mean ± SD),[1]; [9],14.8% and 14.79 ± 2.06%
paclitaxel,fold greater permeability than paclitaxel alone,[7],12 fold
